# From patent US11622970B2, “BCL-2 inhibitors and their use as pharmaceuticals” (PRELUDE THERAPEUTICS INCORPORATED, priority 2020, dated 2023)
# Biological target: BCL-2 recombinant protein (Homo sapiens, UniProt P10415)
# Assay: Cell free Bcl-2:Bak affinity assay (Bcl-2 Bak), HTRF competition of FAM-Bak peptide
# Assay type: binding
# Conditions: 10-concentration IC50 mode, 4 nM BCL-2 recombinant protein, 100 nM FAM-Bak, read-out: potency (IC50)
# Procedure, shortened: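 Compounds in 10-point 3-fold dilution preincubated 10 min at RT with 4 nM GST-BCL-2 (20 mM K phosphate pH 7.5, 50 mM NaCl, 1 mM EDTA, 0.005% Triton X-100), then 100 nM FAM-Bak 10 min, anti-GST-Tb added, 60 min RT dark. HTRF read; % inhibition vs DMSO and positive control, IC50 from curve fit.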
# BCL-2 recombinant protein, sequence (P10415 whole entry): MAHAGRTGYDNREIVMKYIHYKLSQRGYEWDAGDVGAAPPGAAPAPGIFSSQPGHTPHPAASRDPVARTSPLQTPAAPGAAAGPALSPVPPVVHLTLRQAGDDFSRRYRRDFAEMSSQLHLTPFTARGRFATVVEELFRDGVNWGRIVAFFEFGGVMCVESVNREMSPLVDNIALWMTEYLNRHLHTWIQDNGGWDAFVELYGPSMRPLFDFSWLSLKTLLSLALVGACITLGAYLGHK
row,IC50 [nM],Compound
1,10 to 100,"CC1(C)CCC(CN2CCN(c3ccc(S(=O)(=O)NC(=O)c4cc(COc5ccc(Cl)cc5)cc([N+](=O)[O-])c4)c(Oc4cnc5[nH]ccc5c4)c3)CC2)=C(c2ccc(Cl)cc2)C1 [Example 86, 3-[(4-Chlorophenoxy)methyl]-N-[4-[4-[[2-(4-chlorophenyl)-4,4-dimethylcyclohexen-1-yl]methyl]piperazin-1-yl]-2-(1H-pyrrolo[2,3-b]pyridin-5-yloxy)phenyl]sulfonyl-5-nitrobenzamide]"
2,10 to 100,"COCc1ccc(C(=O)NS(=O)(=O)c2ccc(N3CCN(CC4=C(c5ccc(Cl)cc5)CC(C)(C)CC4)CC3)cc2Oc2cnc3[nH]ccc3c2)cc1[N+](=O)[O-] [Example 87, N-[4-[4-[[2-(4-chlorophenyl)-4,4-dimethylcyclohexen-1-yl]methyl]piperazin-1-yl]-2-(1H-pyrrolo[2,3-b]pyridin-5-yloxy)phenyl]sulfonyl-4-(methoxymethyl)-3-nitrobenzamide]"
3,< 10,"Cc1c(Cl)c(C(=O)NS(=O)(=O)c2ccc(N3CCN(CC4=C(c5ccc(Cl)cc5)CC(C)(C)CC4)CC3)cc2Oc2cnc3[nH]ccc3c2)cc([N+](=O)[O-])c1OCc1ccc(Cl)cc1 [Example 88, 2-Chloro-N-[4-[4-[[2-(4-chlorophenyl)-4,4-dimethylcyclohexen-1-yl]methyl]piperazin-1-yl]-2-(1H-pyrrolo[2,3-b]pyridin-5-yloxy)phenyl]sulfonyl-4-[(4-chlorophenyl)methoxy]-3-methyl-5-nitrobenzamide]"
4,100 to 1000,"CC1(C)CCC(CN2CCN(c3ccc(S(=O)(=O)NC(=O)c4ccc(COc5ccc(Cl)cc5)c(S(C)(=O)=O)c4)c(Oc4cnc5[nH]ccc5c4)c3)CC2)=C(c2ccc(Cl)cc2)C1 [Example 89, 4-[(4-chlorophenoxy)methyl]-N-[4-[4-[[2-(4-chlorophenyl)-4,4-dimethylcyclohexen-1-yl]methyl]piperazin-1-yl]-2-(1H-pyrrolo[2,3-b]pyridin-5-yloxy)phenyl]sulfonyl-3-methylsulfonylbenzamide]"
5,100 to 1000,"CC1(C)CCC(CN2CCN(c3ccc(S(=O)(=O)NC(=O)c4ccc(CN5CCOCC5)c([N+](=O)[O-])c4)c(Oc4cnc5[nH]ccc5c4)c3)CC2)=C(c2ccc(Cl)cc2)C1 [Example 90, N-[4-[4-[[2-(4-chlorophenyl)-4,4-dimethylcyclohexen-1-yl]methyl]piperazin-1-yl]-2-(1H-pyrrolo[2,3-b]pyridin-5-yloxy)phenyl]sulfonyl-4-(morpholin-4-ylmethyl)-3-nitrobenzamide]"
6,10 to 100,"CC1(C)CCC(CN2CCN(c3ccc(S(=O)(=O)NC(=O)c4ccc(CNc5ccc(Cl)cc5)c([N+](=O)[O-])c4)c(Oc4cnc5[nH]ccc5c4)c3)CC2)=C(c2ccc(Cl)cc2)C1 [Example 91, 4-[(4-chloroanilino)methyl]-N-[4-[4-[[2-(4-chlorophenyl)-4,4-dimethylcyclohexen-1-yl]methyl]piperazin-1-yl]-2-(1H-pyrrolo[2,3-b]pyridin-5-yloxy)phenyl]sulfonyl-3-nitrobenzamide]"
7,100 to 1000,"CC1(C)CCC(CN2CCN(c3ccc(S(=O)(=O)NC(=O)c4ccc5ccsc5n4)c(Oc4cnc5[nH]ccc5c4)c3)CC2)=C(c2ccc(Cl)cc2)C1 [Example 92, N-[4-[4-[[2-(4-chlorophenyl)-4,4-dimethylcyclohexen-1-yl]methyl]piperazin-1-yl]-2-(1H-pyrrolo[2,3-b]pyridin-5-yloxy)phenyl]sulfonylthieno[2,3-b]pyridine-6-carboxamide]"
8,10 to 100,"CC1(C)CCC(CN2CCN(c3ccc(S(=O)(=O)NC(=O)c4ccnc5sccc45)c(Oc4cnc5[nH]ccc5c4)c3)CC2)=C(c2ccc(Cl)cc2)C1 [Example 93, N-[4-[4-[[2-(4-chlorophenyl)-4,4-dimethylcyclohexen-1-yl]methyl]piperazin-1-yl]-2-(1H-pyrrolo[2,3-b]pyridin-5-yloxy)phenyl]sulfonylthieno[2,3-b]pyridine-4-carboxamide]"
9,100 to 1000,"CC1(C)CCC(CN2CCN(c3ccc(S(=O)(=O)NC(=O)c4ccc([N+](=O)[O-])c(COc5ccc(Cl)cc5)c4)c(Oc4cnc5[nH]ccc5c4)c3)CC2)=C(c2ccc(Cl)cc2)C1 [Example 95, 3-[(4-Chlorophenoxy)methyl]-N-[4-[4-[[2-(4-chlorophenyl)-4,4-dimethylcyclohexen-1-yl]methyl]piperazin-1-yl]-2-(1H-pyrrolo[2,3-b]pyridin-5-yloxy)phenyl]sulfonyl-4-nitrobenzamide]"
10,10 to 100,"CC1(C)CCC(CN2CCN(c3ccc(S(=O)(=O)NC(=O)c4ccc(CNC5CCOCC5)c([N+](=O)[O-])c4)c(Oc4cnc5[nH]ccc5c4)c3)CC2)=C(c2ccc(Cl)cc2)C1 [Example 96, N-[4-[4-[[2-(4-chlorophenyl)-4,4-dimethylcyclohexen-1-yl]methyl]piperazin-1-yl]-2-(1H-pyrrolo[2,3-b]pyridin-5-yloxy)phenyl]sulfonyl-3-nitro-4-[(oxan-4-ylamino)methyl]benzamide]"
11,> 1000,"Cc1cc(S(C)(=O)=O)cc(C(=O)NS(=O)(=O)c2ccc(N3CCN(CC4=C(c5ccc(Cl)cc5)CC(C)(C)CC4)CC3)cc2Oc2cnc3[nH]ccc3c2)n1 [Example 97, N-[4-[4-[[2-(4-Chlorophenyl)-4,4-dimethylcyclohexen-1-yl]methyl]piperazin-1-yl]-2-(1H-pyrrolo[2,3-b]pyridin-5-yloxy)phenyl]sulfonyl-6-methyl-4-methylsulfonylpyridine-2-carboxamide]"
12,10 to 100,"CNc1c([N+](=O)[O-])cc(C(=O)NS(=O)(=O)c2ccc(N3CCN(CC4=C(c5ccc(Cl)cc5)CC(C)(C)CC4)CC3)cc2Oc2cnc3[nH]ccc3c2)c(Cl)c1C [Example 98, 2-chloro-N-[4-[4-[[2-(4-chlorophenyl)-4,4-dimethylcyclohexen-1-yl]methyl]piperazin-1-yl]-2-(1H-pyrrolo[2,3-b]pyridin-5-yloxy)phenyl]sulfonyl-3-methyl-4-(methylamino)-5-nitrobenzamide]"
13,10 to 100,"CCNc1c([N+](=O)[O-])cc(C(=O)NS(=O)(=O)c2ccc(N3CCN(CC4=C(c5ccc(Cl)cc5)CC(C)(C)CC4)CC3)cc2Oc2cnc3[nH]ccc3c2)c(Cl)c1C [Example 99, 2-chloro-N-[4-[4-[[2-(4-chlorophenyl)-4,4-dimethylcyclohexen-1-yl]methyl]piperazin-1-yl]-2-(1H-pyrrolo[2,3-b]pyridin-5-yloxy)phenyl]sulfonyl-4-(ethylamino)-3-methyl-5-nitrobenzamide]"
14,< 10,"CC1(C)CCC(CN2CCN(c3ccc(S(=O)(=O)NC(=O)c4ccc(NCC5CCOCC5)c([N+](=O)[O-])c4)c(Oc4cnc5[nH]ccc5c4)c3)CC2)=C(c2ccc(Cl)cc2)C1 [Example 100, N-[4-[4-[[2-(4-chlorophenyl)-4,4-dimethylcyclohexen-1-yl]methyl]piperazin-1-yl]-2-(1H-pyrrolo[2,3-b]pyridin-5-yloxy)phenyl]sulfonyl-3-nitro-4-(oxan-4-ylmethylamino)benzamide]"
15,10 to 100,"COc1c([N+](=O)[O-])cc(C(=O)NS(=O)(=O)c2ccc(N3CCN(CC4=C(c5ccc(Cl)cc5)CC(C)(C)CC4)CC3)cc2Oc2cnc3[nH]ccc3c2)c(Cl)c1C [Example 101, 2-chloro-N-[4-[4-[[2-(4-chlorophenyl)-4,4-dimethylcyclohexen-1-yl]methyl]piperazin-1-yl]-2-(1H-pyrrolo[2,3-b]pyridin-5-yloxy)phenyl]sulfonyl-4-methoxy-3-methyl-5-nitrobenzamide]"
